Compound: Cn1c(=O)n(-c2ccc(C(C)(C)C#N)cc2)c2c3cc(-c4cnc5ccccc5c4)ccc3ncc21 [Dactolisib] + O=C(CCCCCCC(=O)Nc1ccccc1)NO [Vorinostat] (partner 1 µM)
Experiment: relative viability (nuclei count vs DMSO), 5 days (fraction); higher = more cells survive
Conditions: first compound 0.002 µM
Summary of the method: (§1)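 Relative viability equals treated-well nuclei counts divided by vehicle-well nuclei counts. Counts came from 4× images of lung cancer cell lines grown in 1536-well plates for 5 days after pin-tool dosing on the day after seeding. Dosing used one drug alone or a fixed anchor-drug dose plus five library-drug doses (not always all listed) in √10 steps, and values are medians of duplicate plates.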

Row | Cell Line | relative viability
1 | BEN | 0.555
2 | HARA | 0.578
3 | HCC-78 | 0.33
4 | NCI-H322M | 0.941
5 | LCLC-97TM1 | 0.615
6 | NCI-H2009 | 0.746
7 | A-427 | 0.894
8 | NCI-H441 | 0.841
9 | NCI-H661 | 0.773
10 | NCI-H1734 | 0.612
11 | NCI-H460 | 0.643
12 | NCI-H2347 | 0.557
13 | SW 1573 | 0.571
14 | 201T | 0.987
15 | NCI-H1915 | 0.556
16 | HCC-827 | 0.966
17 | LXF-289 | 0.879
18 | NCI-H23 | 0.512
19 | NCI-H647 | 0.369
20 | CAL-12T | 0.798
21 | NCI-H1651 | 0.579
22 | EPLC-272H | 0.571
23 | NCI-H2228 | 0.652
24 | NCI-H1355 | 0.693

Same assay, conditions: first compound 0.006325 µM

Row | Cell Line | relative viability
25 | NCI-H2405 | 1.02
26 | HOP-62 | 0.541
27 | LU99A | 0.368
28 | BEN | 0.577
29 | HARA | 0.461
30 | HCC-78 | 0.431
31 | NCI-H322M | 0.862
32 | LCLC-97TM1 | 0.655
33 | NCI-H2009 | 0.719
34 | A-427 | 0.864
35 | NCI-H441 | 0.675
36 | NCI-H661 | 0.766
37 | NCI-H1734 | 0.705
38 | NCI-H460 | 0.659
39 | NCI-H2347 | 0.55
40 | SW 1573 | 0.588
41 | 201T | 0.981
42 | NCI-H1915 | 0.487
43 | HCC-827 | 0.934
44 | LXF-289 | 0.789
45 | NCI-H23 | 0.49
46 | NCI-H647 | 0.308
47 | CAL-12T | 0.913
48 | NCI-H1651 | 0.645
49 | EPLC-272H | 0.409
50 | NCI-H2228 | 0.682
51 | NCI-H1355 | 0.608

Same assay, conditions: first compound 0.02 µM

Row | Cell Line | relative viability
52 | NCI-H2405 | 0.839
53 | HOP-62 | 0.543
54 | LU99A | 0.407
55 | BEN | 0.562
56 | HARA | 0.523
57 | HCC-78 | 0.415
58 | NCI-H322M | 0.734
59 | LCLC-97TM1 | 0.612
60 | NCI-H2009 | 0.704
61 | A-427 | 0.834
62 | NCI-H441 | 0.802
63 | NCI-H661 | 0.71
64 | NCI-H1734 | 0.632
65 | NCI-H460 | 0.723
66 | NCI-H2347 | 0.585
67 | SW 1573 | 0.627
68 | 201T | 0.976
69 | NCI-H1915 | 0.531
70 | HCC-827 | 0.785
71 | LXF-289 | 0.741
72 | NCI-H23 | 0.462
73 | NCI-H647 | 0.265
74 | CAL-12T | 0.722
75 | NCI-H1651 | 0.547
76 | EPLC-272H | 0.261
77 | NCI-H2228 | 0.429
78 | NCI-H1355 | 0.558

Same assay, conditions: first compound 0.06325 µM

Row | Cell Line | relative viability
79 | NCI-H2405 | 0.391
80 | HOP-62 | 0.177
81 | LU99A | 0.246
82 | BEN | 0.478
83 | HARA | 0.41
84 | HCC-78 | 0.367
85 | NCI-H322M | 0.599
86 | LCLC-97TM1 | 0.251
87 | NCI-H2009 | 0.568
88 | A-427 | 0.706
89 | NCI-H441 | 0.276
90 | NCI-H661 | 0.455
91 | NCI-H1734 | 0.325
92 | NCI-H460 | 0.127
93 | NCI-H2347 | 0.364
94 | SW 1573 | 0.243
95 | 201T | 0.622
96 | NCI-H1915 | 0.402
97 | HCC-827 | 0.498
98 | LXF-289 | 0.815
99 | NCI-H23 | 0.18
100 | NCI-H647 | 0.123
101 | CAL-12T | 0.209
102 | NCI-H1651 | 0.391
103 | EPLC-272H | 0.36
104 | NCI-H2228 | 0.327
105 | NCI-H1355 | 0.408

Same assay, conditions: first compound 0.2 µM

Row | Cell Line | relative viability
106 | NCI-H2405 | 0.277
107 | HOP-62 | 0.219
108 | LU99A | 0.162
109 | BEN | 0.383
110 | HARA | 0.11
111 | HCC-78 | 0.303
112 | NCI-H322M | 0.609
113 | LCLC-97TM1 | 0.311
114 | NCI-H2009 | 0.202
115 | A-427 | 0.647
116 | NCI-H441 | 0.34
117 | NCI-H661 | 0.391
118 | NCI-H1734 | 0.258
119 | NCI-H460 | 0.173
120 | NCI-H2347 | 0.378
121 | SW 1573 | 0.25
122 | 201T | 0.729
123 | NCI-H1915 | 0.453
124 | HCC-827 | 0.82
125 | LXF-289 | 0.565
126 | NCI-H23 | 0.176
127 | NCI-H647 | 0.0977
128 | CAL-12T | 0.199
129 | NCI-H1651 | 0.377
130 | EPLC-272H | 0.159
131 | NCI-H2228 | 0.164
132 | NCI-H1355 | 0.295

Compound: Cn1c(=O)n(-c2ccc(C(C)(C)C#N)cc2)c2c3cc(-c4cnc5ccccc5c4)ccc3ncc21 [Dactolisib] + Cc1nc(Nc2ncc(C(=O)Nc3c(C)cccc3Cl)s2)cc(N2CCN(CCO)CC2)n1 [Dasatinib] (partner 0.075 µM)
Experiment: as above
Conditions: first compound 0.002 µM
Summary of the method: as §1

Row | Cell Line | relative viability
133 | NCI-H2405 | 0.224
134 | HOP-62 | 0.637
135 | LU99A | 0.621
136 | BEN | 0.333
137 | HARA | 0.273
138 | HCC-78 | 0.427
139 | NCI-H322M | 0.267
140 | LCLC-97TM1 | 0.811
141 | NCI-H2009 | 0.3
142 | A-427 | 0.841
143 | NCI-H441 | 0.729
144 | NCI-H661 | 0.562
145 | NCI-H1734 | 0.499
146 | NCI-H460 | 0.568
147 | NCI-H2347 | 0.284
148 | SW 1573 | 0.627
149 | 201T | 0.601
150 | NCI-H1915 | 0.357
151 | HCC-827 | 0.28
152 | LXF-289 | 0.22
153 | NCI-H23 | 0.852
154 | NCI-H647 | 0.164
155 | CAL-12T | 0.456
156 | NCI-H1651 | 0.388
157 | EPLC-272H | 0.359
158 | NCI-H2228 | 0.629
159 | NCI-H1355 | 0.806

Same assay, conditions: first compound 0.006325 µM

Row | Cell Line | relative viability
160 | NCI-H2405 | 0.238
161 | HOP-62 | 0.578
162 | LU99A | 0.449
163 | BEN | 0.288
164 | HARA | 0.25
165 | HCC-78 | 0.409
166 | NCI-H322M | 0.256
167 | LCLC-97TM1 | 0.85
168 | NCI-H2009 | 0.283
169 | A-427 | 0.645
170 | NCI-H441 | 0.477
171 | NCI-H661 | 0.744
172 | NCI-H1734 | 0.362
173 | NCI-H460 | 0.503
174 | NCI-H2347 | 0.306
175 | SW 1573 | 0.493
176 | 201T | 0.538
177 | NCI-H1915 | 0.332
178 | HCC-827 | 0.331
179 | LXF-289 | 0.21
180 | NCI-H23 | 0.682
181 | NCI-H647 | 0.191
182 | CAL-12T | 0.35
183 | NCI-H1651 | 0.435
184 | EPLC-272H | 0.254
185 | NCI-H2228 | 0.441
186 | NCI-H1355 | 0.743

Same assay, conditions: first compound 0.02 µM

Row | Cell Line | relative viability
187 | NCI-H2405 | 0.207
188 | HOP-62 | 0.625
189 | LU99A | 0.403
190 | BEN | 0.307
191 | HARA | 0.213
192 | HCC-78 | 0.336
193 | NCI-H322M | 0.243
194 | LCLC-97TM1 | 0.858
195 | NCI-H2009 | 0.291
196 | A-427 | 0.668
197 | NCI-H441 | 0.527
198 | NCI-H661 | 0.483
199 | NCI-H1734 | 0.407
200 | NCI-H460 | 0.448
201 | NCI-H2347 | 0.313
202 | SW 1573 | 0.306
203 | 201T | 0.524
204 | NCI-H1915 | 0.308
205 | HCC-827 | 0.301
206 | LXF-289 | 0.235
207 | NCI-H23 | 0.679
208 | NCI-H647 | 0.143
209 | CAL-12T | 0.252
210 | NCI-H1651 | 0.318
211 | EPLC-272H | 0.318
212 | NCI-H2228 | 0.339
213 | NCI-H1355 | 0.689

Same assay, conditions: first compound 0.06325 µM

Row | Cell Line | relative viability
214 | NCI-H2405 | 0.213
215 | HOP-62 | 0.349
216 | LU99A | 0.225
217 | BEN | 0.329
218 | HARA | 0.292
219 | HCC-78 | 0.399
220 | NCI-H322M | 0.234
221 | LCLC-97TM1 | 0.853
222 | NCI-H2009 | 0.194
223 | A-427 | 0.436
224 | NCI-H441 | 0.357
225 | NCI-H661 | 0.296
226 | NCI-H1734 | 0.2
227 | NCI-H460 | 0.185
228 | NCI-H2347 | 0.291
229 | SW 1573 | 0.146
230 | 201T | 0.554
231 | NCI-H1915 | 0.241
232 | HCC-827 | 0.238
233 | LXF-289 | 0.221
234 | NCI-H23 | 0.325
235 | NCI-H647 | 0.0579
236 | CAL-12T | 0.172
237 | NCI-H1651 | 0.238
238 | EPLC-272H | 0.207
239 | NCI-H2228 | 0.162
240 | NCI-H1355 | 0.409

Same assay, conditions: first compound 0.2 µM

Row | Cell Line | relative viability
241 | NCI-H2405 | 0.187
242 | HOP-62 | 0.277
243 | LU99A | 0.205
244 | BEN | 0.262
245 | HARA | 0.127
246 | HCC-78 | 0.224
247 | NCI-H322M | 0.235
248 | LCLC-97TM1 | 0.741
249 | NCI-H2009 | 0.154
250 | A-427 | 0.352
251 | NCI-H441 | 0.205
252 | NCI-H661 | 0.286
253 | NCI-H1734 | 0.162
254 | NCI-H460 | 0.112
255 | NCI-H2347 | 0.253
256 | SW 1573 | 0.119
257 | 201T | 0.346
258 | NCI-H1915 | 0.175
259 | HCC-827 | 0.207
260 | LXF-289 | 0.121
261 | NCI-H23 | 0.302
262 | NCI-H647 | 0.068
263 | CAL-12T | 0.108
264 | NCI-H1651 | 0.177
265 | EPLC-272H | 0.233
266 | NCI-H2228 | 0.141
267 | NCI-H1355 | 0.218
